Data on seven compounds can be found in US20240383911A1, “AZAINDAZOLE MACROCYCLE COMPOUNDS AND USES THEREOF” (BROADENBIO CO., LTD, priority 2021, published 2024).

The pIC50 is the IC50 on a negative log10 scale, so that one unit is a factor of ten.

Assay [1] concerns the target KDR (Homo sapiens, UniProt P35968). The experiment in a line: KDR kinase activity inhibition test (HTRF). In kind it is biochemical. Conditions: read-out: IC50, inhibitory effects on KDR kinase activity. On the procedure: (§1) Tested compounds: compounds prepared in the Examples of this invention.
(§2) Prepare compound stock solution: dissolve the test compound in 100% DMSO to make a 10 mM stock solution. Dilute the stock solution of the test compound by 5 times with 100% DMSO, make a 4-fold equal dilution in a 96-well dilution plate, add 1 μL of the compound to 39 μL of kinase reaction buffer (1×kinase buffer, 5 mM MgCl2, 1 mM DTT), and shake on a microplate shaker for 20 minutes. 4×Positive control (4 μL of positive compound solution of the starting concentration, add 196 μL of kinase buffer) and 4×negative control (4 μL of 100% DMSO, add 196 μL of kinase buffer).
(1) Use 1×kinase reaction buffer to prepare 2.5×KDR kinase solution (250 μM), transfer 2 μL of the kinase solution to the 384 reaction plate, and add 1 μL of the test compound solution of gradient concentration to the 384 reaction plate (Greiner, Cat #784075), centrifuge for 1 minute (1000 rpm), and incubate at 25° C. for 10 minutes.
(§3) (2) Use 1×kinase reaction buffer to prepare 2.5×TK-substrate-biotin (2.5 μM) and 2.5×ATP (2.5 μM), mix well, and add 2 μL of the TK-substrate-biotin/ATP solution to the 384 reaction plate, centrifuge for 30 seconds (1000 rpm), and incubate at 25° C. for 40 minutes.
(§4) (3) Use HTRF detection buffer to prepare 2×Sa-XL 665 (125 nM) and 1×TK-antibody-Cryptate. Add 5 μL of a mixture of Sa-XL 665 and TK-antibody-Cryptate solutions to each well, centrifuge for 30 seconds (1000 rpm), and react at room temperature for 1 hour.
(§5) (4) The fluorescence signal is read using a Biotek multi-function plate reader, and the IC50 (half inhibitory concentration) of the compound is obtained using a four-coefficient nonlinear fitting formula.

In assay [2] the test system is Human Jurkat-E6-1 cells. As to the kind of experiment: Detection of IL-2 production by Jurkat cells using ELISA. The class given is cell-based. Conditions: anti-CD3/anti-CD28 stimulation 24 hours, read-out: Percentage of the amount of IL-2 secreted by compound treated vs DMSO-treated cells; for activity at 1 µM: tested compound 1.0 μM; for activity at 0.33 µM: tested compound 0.33 μM. The method in brief: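 Jurkat E6-1 cells were pre-incubated with compound for 30 min at 37 °C, then stimulated 24 h on plate-bound anti-CD3 plus soluble anti-CD28. Secreted IL-2 in supernatant was measured by sandwich ELISA (450 nm) against a standard curve and expressed as % of DMSO-treated cells.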
(In general: In an ELISA, binding on a coated surface is turned into a signal by an enzyme label.)

Assay [3] concerns the target HPK1 (Homo sapiens, UniProt Q92918). The experiment in a line: HPK1 kinase activity inhibition test (ADP-Glo, luminescence). The class given is biochemical. Conditions: 2 μM ATP, 5 nM HPK1, read-out: IC50, inhibitory effects on HPK1 kinase activity. The method in brief: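 Autophosphorylation assay without added substrate: HPK1 preincubated with compound 10 min at 25 °C, then ATP added for 60 min at 25 °C; final DMSO 0.5%. ADP measured by ADP-Glo luminescence; IC50 from four-parameter nonlinear fit.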
(In general: In ADP-Glo the light output rises with the ADP produced.)

In assay [4] the target is T1, FLT3 (Homo sapiens, UniProt P36888).
T1 sequence (P36888 27-993): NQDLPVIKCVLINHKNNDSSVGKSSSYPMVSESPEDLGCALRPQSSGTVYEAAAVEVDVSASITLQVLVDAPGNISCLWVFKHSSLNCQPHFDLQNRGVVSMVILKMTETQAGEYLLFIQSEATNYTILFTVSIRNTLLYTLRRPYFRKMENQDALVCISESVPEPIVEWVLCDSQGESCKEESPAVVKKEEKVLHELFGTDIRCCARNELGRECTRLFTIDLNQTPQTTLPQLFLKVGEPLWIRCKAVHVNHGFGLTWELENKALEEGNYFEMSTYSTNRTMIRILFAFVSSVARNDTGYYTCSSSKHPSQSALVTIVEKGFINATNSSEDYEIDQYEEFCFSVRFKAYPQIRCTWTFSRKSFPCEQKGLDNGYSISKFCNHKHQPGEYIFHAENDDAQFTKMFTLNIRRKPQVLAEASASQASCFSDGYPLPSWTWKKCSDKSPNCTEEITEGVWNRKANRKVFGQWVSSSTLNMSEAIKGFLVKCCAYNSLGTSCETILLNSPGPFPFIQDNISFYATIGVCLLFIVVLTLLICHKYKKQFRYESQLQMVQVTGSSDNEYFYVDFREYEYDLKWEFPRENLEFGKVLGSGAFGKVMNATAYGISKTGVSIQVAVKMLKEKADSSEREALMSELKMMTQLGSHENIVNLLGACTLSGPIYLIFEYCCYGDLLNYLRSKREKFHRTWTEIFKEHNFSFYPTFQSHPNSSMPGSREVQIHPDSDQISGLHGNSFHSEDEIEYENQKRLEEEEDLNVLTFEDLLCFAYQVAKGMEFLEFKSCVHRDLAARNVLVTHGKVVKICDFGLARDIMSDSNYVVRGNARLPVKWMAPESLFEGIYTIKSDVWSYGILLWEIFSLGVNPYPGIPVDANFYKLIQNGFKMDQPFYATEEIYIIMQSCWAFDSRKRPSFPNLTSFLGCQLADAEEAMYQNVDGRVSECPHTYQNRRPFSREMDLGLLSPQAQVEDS
As to the kind of experiment: FLT3 kinase activity inhibition test (HTRF). Conditions: read-out: IC50, inhibitory effects on FLT3 kinase activity. In kind it is biochemical. On the procedure:
as §1, §2
(1) Use 1×kinase reaction buffer to prepare 2.5×FLT3 kinase solution (160 μM), transfer 2 μL of the kinase solution to the 384 reaction plate, and add 1 μL of the test compound solution of gradient concentration to the 384 reaction plate (Greiner, Cat #784075), centrifuge for 1 minute (1000 rpm), and incubate at 25° C. for 10 minutes.
as §3, §4, §5
A general note: In TR-FRET formats the signal depends on donor and acceptor labels being close together.

Each structure is given as a SMILES string. pIC50: −log10 of the molar value.

Sequence of HPK1 (Q92918 whole entry): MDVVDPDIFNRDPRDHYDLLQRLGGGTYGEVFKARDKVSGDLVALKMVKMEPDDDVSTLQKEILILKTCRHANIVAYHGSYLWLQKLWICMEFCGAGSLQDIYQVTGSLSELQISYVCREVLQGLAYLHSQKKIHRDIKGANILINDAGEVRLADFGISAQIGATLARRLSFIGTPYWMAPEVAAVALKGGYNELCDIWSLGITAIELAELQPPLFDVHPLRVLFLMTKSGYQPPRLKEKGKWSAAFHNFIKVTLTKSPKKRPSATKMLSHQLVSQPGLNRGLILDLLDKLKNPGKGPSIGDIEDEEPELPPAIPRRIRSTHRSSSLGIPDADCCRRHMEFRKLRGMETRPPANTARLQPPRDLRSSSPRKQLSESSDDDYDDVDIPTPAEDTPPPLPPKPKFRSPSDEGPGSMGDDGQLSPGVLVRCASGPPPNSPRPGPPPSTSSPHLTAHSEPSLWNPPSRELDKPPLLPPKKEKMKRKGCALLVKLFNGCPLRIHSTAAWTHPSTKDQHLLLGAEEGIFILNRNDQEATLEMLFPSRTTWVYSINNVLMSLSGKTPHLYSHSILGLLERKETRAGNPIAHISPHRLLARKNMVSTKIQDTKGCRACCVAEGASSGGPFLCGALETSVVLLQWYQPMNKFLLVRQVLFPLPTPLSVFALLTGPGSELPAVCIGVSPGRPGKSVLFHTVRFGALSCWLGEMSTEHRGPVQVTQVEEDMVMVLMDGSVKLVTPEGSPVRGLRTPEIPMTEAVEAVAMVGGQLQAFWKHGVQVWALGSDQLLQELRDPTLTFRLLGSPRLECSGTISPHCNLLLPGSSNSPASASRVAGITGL
Sequence of KDR (P35968 20-1356): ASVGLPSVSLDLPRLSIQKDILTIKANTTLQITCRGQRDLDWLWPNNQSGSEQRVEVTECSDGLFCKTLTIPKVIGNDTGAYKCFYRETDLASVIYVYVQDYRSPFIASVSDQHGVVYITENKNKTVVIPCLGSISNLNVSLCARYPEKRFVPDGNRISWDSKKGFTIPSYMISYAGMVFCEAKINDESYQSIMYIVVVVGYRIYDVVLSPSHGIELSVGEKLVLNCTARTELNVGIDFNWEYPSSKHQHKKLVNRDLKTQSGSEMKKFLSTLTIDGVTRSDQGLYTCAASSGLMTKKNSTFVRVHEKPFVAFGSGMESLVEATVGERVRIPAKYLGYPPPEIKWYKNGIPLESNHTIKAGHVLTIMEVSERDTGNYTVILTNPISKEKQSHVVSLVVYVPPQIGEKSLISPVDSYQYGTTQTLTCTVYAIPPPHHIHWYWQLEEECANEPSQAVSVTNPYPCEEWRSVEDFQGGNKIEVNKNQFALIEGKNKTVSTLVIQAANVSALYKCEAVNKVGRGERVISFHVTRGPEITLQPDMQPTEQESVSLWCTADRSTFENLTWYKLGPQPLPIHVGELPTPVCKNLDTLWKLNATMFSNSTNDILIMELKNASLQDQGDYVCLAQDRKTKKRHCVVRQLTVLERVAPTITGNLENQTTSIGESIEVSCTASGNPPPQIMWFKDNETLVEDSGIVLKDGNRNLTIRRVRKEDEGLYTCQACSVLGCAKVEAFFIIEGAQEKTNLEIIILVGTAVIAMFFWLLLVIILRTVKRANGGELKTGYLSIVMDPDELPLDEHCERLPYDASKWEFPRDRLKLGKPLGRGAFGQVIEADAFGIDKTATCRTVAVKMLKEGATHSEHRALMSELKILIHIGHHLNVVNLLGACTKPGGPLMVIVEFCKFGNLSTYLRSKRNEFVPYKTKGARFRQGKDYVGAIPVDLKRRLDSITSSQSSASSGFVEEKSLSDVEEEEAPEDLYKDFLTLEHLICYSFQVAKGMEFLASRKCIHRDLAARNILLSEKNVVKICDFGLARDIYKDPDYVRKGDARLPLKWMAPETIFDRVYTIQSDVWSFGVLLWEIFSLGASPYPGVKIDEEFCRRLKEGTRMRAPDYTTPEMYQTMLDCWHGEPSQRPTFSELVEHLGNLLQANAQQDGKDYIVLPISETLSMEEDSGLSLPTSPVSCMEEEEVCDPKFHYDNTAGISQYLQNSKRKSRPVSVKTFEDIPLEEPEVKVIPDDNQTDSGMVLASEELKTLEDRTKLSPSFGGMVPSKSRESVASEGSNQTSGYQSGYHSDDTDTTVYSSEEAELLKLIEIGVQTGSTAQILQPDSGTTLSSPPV

Consider `Fc1cccc2c1-c1cc3c(n[nH]c3cn1)-c1ccc(N3CCNCC3)c(c1)OCCCOC2` [Compound 10, 17-fluoro-5-(piperazin-1-yl)-7,11-dioxa-20,23,24-triazapentacyclo[17.5.2.1^2,6.0^13,18.0^22,25]heptacosa-1(24),2(27),3,5,13,15,17,19,21,25-decaene], for which the results for the pIC50 in assay [1], in assay [3] and in assay [4] were 7.30 to 8.30, at least 8.30 and at least 8.30, respectively. Moreover, the activity at 1 µM in assay [2] amounted to 298%.
On to `OCCN1CCN(c2ccc3cc2OCCCOCc2cccc(F)c2-c2cc4c-3n[nH]c4cn2)CC1` [Compound 12, 17-fluoro-5-(4-(2-hydroxyethyl)piperazin-1-yl)-7,11-dioxa-20,23,24-triazapentacyclo[17.5.2.1^2,6.0^13,18.0^22,25]heptacosa-1(24),2(27),3,5,13,15,17,19,21,25-decaene], for which the results for the pIC50 in assay [1], in assay [3] and in assay [4] were 7.30 to 8.30, at least 8.30 and at least 8.30, respectively.
As to `Fc1cccc2c1-c1cc3c(n[nH]c3cn1)-c1ccc(N3CCN4CCOC[C@H]4C3)c(c1)OCCCO2` [Compound 102, 5-[(9aR)-octahydropyrazino[2,1-c][1,4]oxazin-8-yl]-16-fluoro-7,11-dioxa-19,22,23-triazapentacyclo[16.5.2.1^2,6.0^12,17.0^21,24]hexacosa-1(23),2,4,6(26),12(17),13,15,18,20,24-decaene], the pIC50 in assay [1], in assay [3] and in assay [4] was at least 8.30 in each case. Further, the activity at 1 µM in assay [2] worked out at 702%.
As for `Fc1cccc2c1-c1cc3c(n[nH]c3cn1)-c1ccc(N3CCN4CCOC[C@H]4C3)c(c1)OCCCOC2` [Compound 103, 5-[(9aR)-octahydropyrazino[2,1-c][1,4]oxazin-8-yl]-17-fluoro-7,11-dioxa-20,23,24-triazapentacyclo[17.5.2.1^2,6.0^13,18.0^22,25]heptacosa-1(24),2,4,6(27),13(18),14,16,19,21,25-decaene], the pIC50 in assay [1], in assay [3] and in assay [4] was at least 8.30 each time. The activity at 0.33 µM in assay [2] was 580%.
Regarding `O[C@H]1COc2cc(ccc2N2CCN3CCOC[C@H]3C2)-c2n[nH]c3cnc(cc23)-c2c(F)cccc2OC1` [Compound 119, (9R)-5-[(9aR)-octahydropyrazino[2,1-c][1,4]oxazin-8-yl]-16-fluoro-7,11-dioxa-19,22,23-triazapentacyclo[16.5.2.1^2,6.0^12,17.0^21,24]hexacosa-1(23),2,4,6(26),12(17),13,15,18,20,24-decaen-9-ol], the pIC50 in assay [1] was at least 8.30; in assay [3], 7.30 to 8.30; in assay [4] it was at least 8.30. Besides, in assay [2], the activity at 0.33 µM came to 591%.
For `CN1CCN(c2ccc3cc2OCCCOCc2cccc(F)c2-c2cc4c-3n[nH]c4cn2)C[C@H]1CO` [Compound 122, [(2S)-4-{17-fluoro-7,11-dioxa-20,23,24-triazapentacyclo[17.5.2.1^2,6.0^13,18.0^22,25]heptacosa-1(24),2,4,6(27),13(18),14,16,19,21,25-decaen-5-yl}-1-methylpiperazin-2-yl]methanol], the pIC50 in assay [1], in assay [3] and in assay [4] was at least 8.30 throughout. For the same compound, the activity at 0.33 µM in assay [2] is 345%.
On to `CN1C2CCC1CN(c1ccc3cc1OCCCOc1cccc(F)c1-c1cc4c-3n[nH]c4cn1)C2` [Compound 144, 16-fluoro-5-{8-methyl-3,8-diazabicyclo[3.2.1]octan-3-yl}-7,11-dioxa-19,22,23-triazapentacyclo[16.5.2.1^2,6.0^12,17.0^21,24]hexacosa-1(23),2,4,6(26),12(17),13,15,18,20,24-decaene], for which the pIC50 in assay [1], in assay [3] and in assay [4] was at least 8.30 in each case. For the same compound, the activity at 1 µM in assay [2] is 517%.
